Entries after “also recorded” stand apart in the source; their conditions may differ. Values belong to the compound of their own block, whether it stands above or below them.
Experiments:
Format in all cases: cell-based, human
mGULO organoids = test: Survival and morphology of mGULO organoids with doxycycline induction; details: Dox 10, 100, 1000 ng/mL, with bilirubin (FIG. 2O)
CYP1A2 = CYP1A2 activity assay (P450-Glo) after omeprazole
Description: (§1) CYP3A4 and CYP1A2 assays were performed by harvesting HLOs, washing in PBS, plating them into a 96 well assay plate, and treating them with rifampicin and omeprazole, respectively, for 24 hours. The assays were then performed using P450-Glo CYP3A4 and CYP1A2 Assay (Promega) and normalized using CellTiter-Glo Luminescent Cell Viability Assay according to manufacturer instructions.

CYP3A4 = CYP3A4 activity assay (P450-Glo) after rifampicin
Description: as §1

liver organoids [1] = test: Immunofluorescence of mature liver enzymes and transport proteins; details: 1 mg/L bilirubin (FIGS. 1F-H)
Description: For maturation induction in HLOs, the day 15 organoids were fed with complete HCM with supplements in addition to low dose bilirubin (1 mg/L). This treatment was continued until day 30 when the organoids were harvested. […] For whole mount immunostains, the organoids were fixed in 4% PFA, permeabilized with 0.1% PBST, blocked with 5% Normal Donkey Serum in 0.1% PBST, and stained with the appropriate primary and secondary antibodies. The images were captured on the Nikon A1 inverted confocal microscope.

liver organoids [2] = test: Hyperbilirubinemia induction: HLOs treated with varying bilirubin concentrations (brightfield); details: bilirubin 1, 2, 5 or 10 mg/L, 1 and 4 days (FIG. 3B)
Description: (§2) On day 27, the mature organoids were treated with bilirubin (1-10 mg/L), doxycycline (100 ng/mL; added 3 days prior to activate gene expression) and/or additionally with drugs such as hydrocortisone, dexamethasone, ketoconazole and mifepristone (1-2 μM for each) for 5 days and then harvested for downstream assays. Bilirubin assay was performed using a colorimetric kit (ab235627 from Abcam). RNA was isolated using the RNeasy mini kit (Qiagen, Hilden, Germany). Reverse transcription was carried out using the High-Capacity cDNA Reverse Transcription Kit (Thermo Fisher Scientific Inc.) according to manufacturer's protocol. qPCR was carried out using TaqMan gene expression master mix (Applied Biosystems) on a QuantStudio 5 Real-Time PCR System (Thermo Fisher Scientific Inc.). All primers and probe information for each target gene was obtained from the Universal ProbeLibrary Assay Design Center (available on the World Wide Web at lifescience.roche.com/en_us/brands/universal-probe-library.html). Images were captured on the KEYENCE BZ-X710 Fluorescence Microscope (Keyence).

CNS HLOs = test: Bilirubin toxicity in Crigler-Najjar syndrome liver organoids (brightfield); details: 10 mg/L bilirubin, inactive UGT1A1 gene (FIG. 3H)
Description: On day 27, the mature organoids were treated with bilirubin (1-10 mg/L), doxycycline (100 ng/mL; added 3 days prior to activate gene expression) and/or additionally with drugs such as hydrocortisone, dexamethasone, ketoconazole and mifepristone (1-2 μM for each) for 5 days and then harvested for downstream assays. […] Images were captured on the KEYENCE BZ-X710 Fluorescence Microscope (Keyence).

liver organoids [3] = test: Bilirubin assay measuring unconjugated and conjugated bilirubin in liver organoids; details: liver organoids in 10 mg/L bilirubin; drug 1 or 5 μM (FIG. 4B, 4D)
Description: Bilirubin levels were measured by collecting the supernatant from HLOs treated with bilirubin and serum from rats. The supernatant and serum were assayed with Bilirubin Assay Kit (Total and Direct, Colorimetric) (abcam) and Bilirubin Assay Kit (Sigma-Aldrich) according to manufacturer instructions.

UGT1A1 = test: RT-qPCR of UGT1A1 in liver organoids; details: 10 mg/L bilirubin plus drug vs 10 mg/L bilirubin alone (FIG. 4E)
Description: as §2

NRF2 = test: RT-qPCR of NRF2 in liver organoids; details: 10 mg/L bilirubin plus drug vs 10 mg/L bilirubin alone (FIG. 4E)
Description: as §2

UGT1A1 gene = test: ChIP-PCR and ChIP-qPCR of hyperbilirubinemic organoids; details: 10 mg/L bilirubin, 1 μM drug (FIG. 4H)
liver organoids [4] = test: RNA sequencing of HLOs; details: 10 mg/L bilirubin and 1 μM mifepristone vs control (FIG. 4F)
Description: RNA was isolated using the RNeasy mini kit (Qiagen). […] All the samples were amplified with TaqMan Gene Expression Assays and normalized with 18S rRNA Endogenous Control. For RNA sequencing, the extracted RNA quality was evaluated with an Agilent 2100 Bioanalyzer (Agilent). A sequence library was prepared using a TruSeq Stranded mRNA kit (Illumina) and sequenced using NovaSeq 6000 (Illumina). Reads were aligned to human genome assembly hg38 and quantified using the quasi-mapper Salmon (v1.8.0). Gene-expression analysis was performed using the R Bioconductor package DESeq2 (v1.36.0). The read count matrix was normalized by size factors, and a variance stabilizing transformation (VST) was applied to the normalized expression data. The data was visualized using clusterProfiler (v.4.4.1) and pheatmap (v1.0.12) packages. […] RNA sequencing parameters were 150 bp paired-end sequencing at a depth of 20M reads per samples. Fastq read files for each sample were obtained and then aligned using Salmon, a quasi-mapping tool that aligns and quantifies transcripts using RNA-seq data. Raw transcript counts and normalized transcripts per million (TPM) values were obtained and analyzed for differential expression with DESeq2. […]

CYP1A2 activity (CYP1A2; mGULO organoids, Dox plus low dose bilirubin, omeprazole insult (FIG. 2P)): increased
CYP3A4 activity (CYP3A4; mGULO organoids, Dox plus low dose bilirubin, rifampicin insult (FIG. 2P)): increased
SMILES: C[C@H]1c2cccc(O)c2C(=O)C2=C(O)[C@]3(O)C(=O)C(C(N)=O)=C(O)[C@@H](N(C)C)[C@@H]3[C@@H](O)[C@@H]21 [doxycycline]
gross morphology of mGULO organoids (mGULO organoids): maintain their gross morphology

CYP1A2 activity (CYP1A2; 1 mg/L bilirubin-treated organoids, after omeprazole, vs untreated control (FIG. 1E)): increased cytochrome activity
CYP3A4 activity (CYP3A4; 1 mg/L bilirubin-treated organoids, after rifampicin, vs untreated control (FIG. 1E)): increased cytochrome activity
SMILES: C=CC1=C(C)/C(=C/c2[nH]c(Cc3[nH]c(/C=C4\NC(=O)C(C)=C4C=C)c(C)c3CCC(=O)O)c(CCC(=O)O)c2C)NC1=O [bilirubin]
expression of CYP2E1, CYP7A1, MPR1, MRP3, PROX1, OATP2 (immunofluorescence) (liver organoids [1]): expressed mature liver enzymes and transport proteins
organoid morphology and intracellular bilirubin accumulation (liver organoids [2]): significant morphological changes and intracellular accumulation of bilirubin
organoid toxicity in CNS HLOs (CNS HLOs): liver organoid toxicity

SMILES: C[C@]12CCC(=O)C=C1CC[C@@H]1[C@@H]2[C@@H](O)C[C@@]2(C)[C@H]1CC[C@]2(O)C(=O)CO [hydrocortisone]
bilirubin conjugation (unconjugated vs conjugated bilirubin) (liver organoids [3]): decreased bilirubin conjugation ability
UGT1A1 expression (UGT1A1): depressed

SMILES: CC(=O)N1CCN(c2ccc(OCC3COC(Cn4ccnc4)(c4ccc(Cl)cc4Cl)O3)cc2)CC1 (stereo not drawn) [ketoconazole]
NRF2 expression (NRF2): improved
bilirubin conjugation (unconjugated vs conjugated bilirubin) (liver organoids [3]): improved conjugation and metabolism of bilirubin; also recorded: increased bilirubin conjugation
UGT1A1 expression (UGT1A1): elevated

SMILES: CC#C[C@]1(O)CC[C@H]2[C@@H]3CCC4=CC(=O)CCC4=C3[C@@H](c3ccc(N(C)C)cc3)C[C@@]21C [mifepristone]
NRF2 expression (NRF2): improved
silencing of the UGT1A1 gene (MECP2) (UGT1A1 gene): reverses this silencing
bilirubin conjugation (unconjugated vs conjugated bilirubin) (liver organoids [3]): improved conjugation and metabolism of bilirubin; also recorded: increased bilirubin conjugation
UGT1A1 expression (UGT1A1): elevated
gene expression / enriched pathways (liver organoids [4]): enrichment of many genes involved in liver function

— patent US20240368556A1, “LIVER ORGANOID MODEL FOR HYPERBILIRUBINEMIA AND METHODS OF MAKING AND USING SAME” (CHILDREN’S HOSPITAL MEDICAL CENTER, priority 2021, published 2024)
